Here are results for five compounds from patent US20210002623A1, “AMINOPEPTIDASE AND ITS USES” (Centre national de la recherche scientifique, priority 2017, published 2021).

In experiment [1] the target is T1, MjTET (Methanocaldococcus jannaschii, UniProt Q57975).
T1 construct: made in house; host or cells: Escherichia coli ArcticExpress (DE3)-RIL
T1 sequence (Q57975 1-350): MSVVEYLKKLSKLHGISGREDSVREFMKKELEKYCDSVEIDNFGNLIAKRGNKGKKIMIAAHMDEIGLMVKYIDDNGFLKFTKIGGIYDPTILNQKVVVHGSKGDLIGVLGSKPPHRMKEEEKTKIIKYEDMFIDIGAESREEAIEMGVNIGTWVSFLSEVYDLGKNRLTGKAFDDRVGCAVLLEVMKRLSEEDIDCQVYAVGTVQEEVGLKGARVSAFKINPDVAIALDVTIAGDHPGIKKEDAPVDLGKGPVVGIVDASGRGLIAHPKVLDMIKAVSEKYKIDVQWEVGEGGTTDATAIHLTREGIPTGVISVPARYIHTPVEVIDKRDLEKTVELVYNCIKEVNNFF
Put plainly: Effect of metal cations on MjTET activity. In kind it is biochemical. The conditions noted are these: 5 mM Leu-pNA, pH 8.5, 75° C., 5 min. The protocol: The metal cations XCl2 were incubated at 0.1 mM concentration with 4 μg/mL of MjTET and 5 mM of Leu-pNA in 50 mM CHES, 150 mM KCl, pH 8.5 for 5 min at 75° C. To assess the effect of metal cations on MjTET activity, the enzymatic reaction was followed as described before.

Experiment [2] addresses T1, MjTET. Put plainly: Effect of inhibitors on MjTET activity (Leu-pNA hydrolysis). In kind it is biochemical. The conditions noted are these: 5 mM Leu-pNA, 0.1 mM CoCl2, pH 8.5, 85° C., 5 min. The protocol:
The inhibitory effect of EDTA, Amastatine and Bestatine was tested on the MjTET enzymatic activity. 4 μg/mL of MjTET were incubated with each inhibitor separately in the presence of 5 mM Leu-pNA, 50 mM CHES, 150 mM KCl, 0.1 mM CoCl2, pH 8.5 at 85° C. for 5 min. Three replicates (with inhibitor) and two controls (without inhibitor) were assayed for each experimental point.

On to `[Cl-].[Cl-].[Co+2]` [cobalt ions], for which the “effect on MjTET LAP activity” value in experiment [1] (0.1 mM metal cation) is listed as “increase of LAP activity”.

As for `[Cl-].[Cl-].[Zn+2]` [ZnCl2], the “effect on MjTET LAP activity” value in experiment [1] (0.1 mM ZnCl2) is recorded as “significant inhibition”.

In the case of `CC(C)C[C@@H](N)[C@H](O)C(=O)N[C@H](C(=O)N[C@H](C(=O)N[C@@H](CC(=O)O)C(=O)O)C(C)C)C(C)C` [amastatine], the “inhibition of MjTET LAP activity” value in experiment [2] (0.2 mM amastatine) was “completely inhibited”.

As to `O=C(O)CN(CCN(CC(=O)O)CC(=O)O)CC(=O)O` [EDTA], the “inhibition of MjTET enzymatic activity” value in experiment [2] (5 mM EDTA) was “completely inhibited”.

Consider `CC(C)C[C@H](NC(=O)[C@@H](O)[C@H](N)Cc1ccccc1)C(=O)O` [bestatine], for which the “inhibition of MjTET LAP activity” value in experiment [2] (1 mM bestatine) is “completely inhibited”.
